Results as given in patent publication US12162890B2 (Novartis AG, priority 2015, dated 2024).

target: HEK293 cells with stable expression of the GRIN1 gene and tetracycline-inducible expression of the GRIN2B gene (NMDA receptor, NR2B) (Homo sapiens, UniProt Q13224); experiment: Fluo-8 Ca2+ flux assay: reversal of Ro 25-6981-mediated suppression of the Ca2+ response to co-agonist (glutamate/glycine); type: cell-based; details: reversal of the Ro 25-6981 suppression of the Ca2+ response to co-agonist (glutamate/glycine); further: test concentration or dose not given here
Sequence (Q13224 27-1484, other chains not shown): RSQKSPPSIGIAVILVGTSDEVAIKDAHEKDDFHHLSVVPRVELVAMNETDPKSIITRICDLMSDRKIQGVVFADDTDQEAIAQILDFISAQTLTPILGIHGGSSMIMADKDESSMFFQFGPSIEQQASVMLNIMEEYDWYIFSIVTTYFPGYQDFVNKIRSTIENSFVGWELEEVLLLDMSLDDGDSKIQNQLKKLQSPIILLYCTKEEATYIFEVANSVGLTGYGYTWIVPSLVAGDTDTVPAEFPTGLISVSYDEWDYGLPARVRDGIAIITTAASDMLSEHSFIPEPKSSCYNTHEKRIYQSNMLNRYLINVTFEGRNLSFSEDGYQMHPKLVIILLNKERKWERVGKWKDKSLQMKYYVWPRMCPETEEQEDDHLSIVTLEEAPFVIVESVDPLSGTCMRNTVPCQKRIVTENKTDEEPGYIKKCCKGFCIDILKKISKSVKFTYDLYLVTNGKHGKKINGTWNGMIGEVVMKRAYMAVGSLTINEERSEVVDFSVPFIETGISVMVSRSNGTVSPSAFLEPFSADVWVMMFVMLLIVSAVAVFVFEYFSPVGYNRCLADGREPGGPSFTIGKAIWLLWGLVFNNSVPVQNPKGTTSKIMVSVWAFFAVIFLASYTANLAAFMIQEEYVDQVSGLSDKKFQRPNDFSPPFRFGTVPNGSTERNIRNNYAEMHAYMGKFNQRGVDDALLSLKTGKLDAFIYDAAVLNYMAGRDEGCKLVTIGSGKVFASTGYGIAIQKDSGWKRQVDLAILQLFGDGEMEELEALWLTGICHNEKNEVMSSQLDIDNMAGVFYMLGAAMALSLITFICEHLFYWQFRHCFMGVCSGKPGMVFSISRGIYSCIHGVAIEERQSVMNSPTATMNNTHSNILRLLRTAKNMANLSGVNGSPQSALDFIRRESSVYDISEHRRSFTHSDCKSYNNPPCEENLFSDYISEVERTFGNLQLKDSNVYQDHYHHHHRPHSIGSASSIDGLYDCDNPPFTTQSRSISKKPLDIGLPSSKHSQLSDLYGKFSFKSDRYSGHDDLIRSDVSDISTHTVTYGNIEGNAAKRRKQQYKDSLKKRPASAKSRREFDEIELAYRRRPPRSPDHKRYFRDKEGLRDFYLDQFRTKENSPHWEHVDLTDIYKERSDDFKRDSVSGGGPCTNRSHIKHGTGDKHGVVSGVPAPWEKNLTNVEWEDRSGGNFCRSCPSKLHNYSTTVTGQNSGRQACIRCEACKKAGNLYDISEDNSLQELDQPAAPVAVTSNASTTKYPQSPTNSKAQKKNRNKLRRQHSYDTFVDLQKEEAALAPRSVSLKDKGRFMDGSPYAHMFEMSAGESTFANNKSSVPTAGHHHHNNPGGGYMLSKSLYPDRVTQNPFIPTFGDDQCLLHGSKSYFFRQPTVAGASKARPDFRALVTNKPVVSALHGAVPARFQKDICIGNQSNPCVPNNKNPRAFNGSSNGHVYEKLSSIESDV

Response Recovered (%)	Compound
28	O=C(Cn1ccc2scc(-c3cnc(Cl)c(C(F)(F)F)c3)c2c1=O)N1CCC(F)C1 (stereo not drawn) [Example 25, 3-(6-chloro-5-(trifluoromethyl)pyri-din-3-yl)-5-(2-(3-fluoropyrrolidin-1-yl)-2-oxoethyl)thieno[3,2-c]pyridin-4(5H)-one]
46	O=C(Cn1ccc2scc(-c3ccc(F)c(Cl)c3)c2c1=O)N1CC[C@H](F)C1 [Example 40, (S)-3-(3-chloro-4-fluorophenyl)-5-(2-(3-fluoropyrrolidin-1-yl)-2-oxoethyl)thieno[3,2-c]pyridin-4(5H)-one]
33	Cc1cc(-c2ccn3ccn(CC(=O)N4CC(F)(CF)C4)c(=O)c23)cnc1Cl [Example 409, 8-(6-chloro-5-methylpyridin-3-yl)-2-(2-(3-fluoro-3-(fluoromethyl)azetidin-1-yl)-2-oxoethyl)pyrrolo[1,2-a]pyrazin-1(2H)-one]
59	O=C(Cn1ccc2c(c(-c3ccc(F)c(Cl)c3)cn2-c2ccncn2)c1=O)N1CCC(F)C1 (stereo not drawn) [Example 248]
81	O=C(Cn1ccc2scc(-c3ccc(F)c(C(F)(F)F)c3)c2c1=O)N1CC[C@@H](F)C1 [Example 27, (R)-3-(4-fluoro-3-(trifluoromethyl)phen-yl)-5-(2-(3-fluoropyrrolidin-1-yl)-2-oxoethyl)thieno[3,2-c]pyridin-4(5H)-one]
74	CCC1(F)CN(C(=O)Cn2cc(C)n3ccc(-c4ccc(F)c(Cl)c4)c3c2=O)C1 [Example 418, 8-(3-chloro-4-fluorophenyl)-2-(2-(3-ethyl-3-fluoroazetidin-1-yl)-2-oxoethyl)-4-methylpyrrolo[1,2-a]pyrazin-1(2H)-one]
130	O=C(Cn1ccn2ccc(-c3ccc(F)c(C(F)(F)F)c3)c2c1=O)N1CC(F)(CF)C1 [Example 407, 2-(2-(3-fluoro-3-(fluoromethyl)azetidin-1-yl)-2-oxoethyl)-8-(4-fluoro-3-(trifluoromethyl)phenyl)pyrrolo[1,2-a]pyrazin-1(2H)-one]
52	Cn1cnc(-n2cc(-c3ccc(F)c(C(F)(F)F)c3)c3c(=O)n(CC(=O)N4CC(C)(F)C4)ccc32)n1 [Example 268, 3-(4-fluoro-3-(trifluoromethyl)phenyl)-5-(2-(3-fluoro-3-methylazetidin-1-yl)-2-oxoethyl)-1-(1-methyl-1H-1,2,4-triazol-3-yl)-1H-pyrrolo[3,2-c]pyridin-4(5H)-one]
17	Cc1cc(-c2csc3ccn(CC(=O)N4CC(F)(CF)C4)c(=O)c23)cnc1Cl [Example 86, 3-(6-chloro-5-methylpyridin-3-yl)-5-(2-(3-fluoro-3-(fluoromethyl)azetidin-1-yl)-2-oxoethyl)thieno[3,2-c]pyridin-4(5H)-one]
26	O=C(Cn1cnc2csc(-c3ccc(Cl)cc3)c2c1=O)N1CC(F)(F)C1 [Example 348, 5-(4-chlorophenyl)-3-(2-(3,3-difluoroazetidin-1-yl)-2-oxoethyl)thieno[3,4-d]pyrimidin-4(3H)-one]
−3.8	O=C(Cn1ccc2scc(-c3cncc(Cl)n3)c2c1=O)N1CC(F)(CF)C1 [Example 146, 3-(6-chloropyrazin-2-yl)-5-(2-(3-fluoro-3-(fluoromethyl)azetidin-1-yl)-2-oxoethyl)thieno[3,2-c]pyridin-4(5H)-one]
57	CCn1cc(-c2ccc(Cl)c(C(F)(F)F)c2)c2c(=O)n(CC(=O)N3CC(F)(F)C3)cnc21 [Example 169]
107	O=C(Cn1ccc2scc(-c3ccc(Cl)c(Cl)c3)c2c1=O)N1C[C@@H](F)[C@@H](F)C1 [Example 16, 3-(3,4-dichlorophenyl)-5-(2-((3S,4R)-3,4-difluoropyrrolidin-1-yl)-2-oxoethyl)thieno[3,2-c]pyridin-4(5H)-one]
29	O=C(Cn1cc(C2CC2)c2scc(-c3ccc(Cl)c(C(F)(F)F)c3)c2c1=O)N1CCCC1 [Example 101, 3-(4-chloro-3-(trifluoromethyl)phenyl)-7-cyclopropyl-5-(2-oxo-2-(pyrrolidin-1-yl)ethyl)thieno[3,2-c]pyridin-4(5H)-one]
66	O=C(Cn1cnc2[nH]cc(-c3ccc(Cl)c(C(F)(F)F)c3)c2c1=O)N1CCCC1 [Example 148, 5-(4-chloro-3-(trifluoromethyl)phenyl)-3-(2-oxo-2-(pyrrolidin-1-yl)ethyl)-3H-pyrrolo[2,3-d]pyrimidin-4(7H)-one]
90	O=C(Cn1ccc2scc(-c3ccc(C(F)(F)F)c(Cl)c3)c2c1=O)N1CCC(F)C1 (stereo not drawn) [Example 13, 3-(3-chloro-4-(trifluoromethyl)phenyl)-5-(2-(3-fluoropyrrolidin-1-yl)-2-oxoethyl)thieno[3,2-c]pyridin-4(5H)-one]

Response Recovered (%)	Compound
91	O=C(Cn1ccc2[nH]cc(-c3ccc(F)c(C(F)(F)F)c3)c2c1=O)N1CCCC1 [Example 219, 3-(4-fluoro-3-(trifluoromethyl)phenyl)-5-(2-oxo-2-(pyrrolidin-1-yl)ethyl)-1H-pyrrolo[3,2-c]pyridin-4(5H)-one]
4	O=C(Cn1ncc2scc(-c3ccc(Cl)c(F)c3)c2c1=O)N1CCC(F)C1 (stereo not drawn) [Example 342, 3-(4-chloro-3-fluorophenyl)-5-(2-(3-fluoropyrrolidin-1-yl)-2-oxoethyl)thieno[2,3-d]pyridazin-4(5H)-one]
13	CC(C)(O)Cn1cc(-c2ccc(F)c(C(F)(F)F)c2)c2c(=O)n(CC(=O)N3CC(F)C(F)C3)ccc21 (stereo not drawn) [Example 258, 5-(2-(3,4-difluoropyrrolidin-1-yl)-2-oxoethyl)-3-(4-fluoro-3-(trifluoromethyl)phenyl)-1-(2-hydroxy-2-methylpropyl)-1H-pyrrolo[3,2-c]pyridin-4(5H)-one]
110	O=C(Cn1ccc2c(c(-c3ccc(F)c(C(F)(F)F)c3)cn2-c2ccncn2)c1=O)N1CCC(F)C1 (stereo not drawn) [Example 244, 3-(4-fluoro-3-(trifluoromethyl)phenyl)-5-(2-(3-fluoropyrrolidin-1-yl)-2-oxoethyl)-1-(pyrimidin-4-yl)-1H-pyrrolo[3,2-c]pyridin-4(5H)-one]
62	Cn1cc(-c2ccc(Cl)c(Cl)c2)c2c(=O)n(CC(=O)N3CCC(F)C3)ccc21 (stereo not drawn) [Example 250, 3-(3,4-dichlorophenyl)-5-(2-(3-fluoropyrrolidin-1-yl)-2-oxoethyl)-1-methyl-1H-pyrrolo[3,2-c]pyridin-4(5H)-one]
7.3	O=C(Cn1ccc2scc(-c3ccc(F)c(Cl)c3)c2c1=O)NCC(F)(F)F [Example 56, 2-(3-(3-chloro-4-fluorophenyl)-4-oxothieno[3,2-c]pyridin-5(4H)-yl)-N-(2,2,2-trifluoroethyl)aceta-mide]
42	O=C(Cn1cnc2c(c(-c3ccc(F)c(Cl)c3)cn2C2CC2)c1=O)N1CCCC1 [Example 192, 5-(3-chloro-4-fluorophenyl)-7-cyclopropyl-3-(2-oxo-2-(pyrrolidin-1-yl)ethyl)-3H-pyrrolo[2,3-d]pyrimidin-4(7H)-one]
1	O=C(Cn1cnc2ccn(-c3ccc(Cl)cc3)c2c1=O)N1CCCCC1 [Example 377, 5-(4-chlorophenyl)-3-(2-oxo-2-(piperidin-1-yl)ethyl)-3H-pyrrolo[3,2-d]pyrimidin-4(5H)-one]
130	O=C(Cn1ccn2ccc(-c3ccc(Cl)c(Cl)c3)c2c1=O)N1CC(F)(CF)C1 [Example 403, 8-(3,4-dichlorophenyl)-2-(2-(3-fluoro-3-(fluoromethyl)azetidin-1-yl)-2-oxoethyl)pyrrolo[1,2-a]pyrazin-1(2H)-one]
40	O=C(Cn1cnc2c(c(-c3ccc(F)c(Cl)c3)cn2CCF)c1=O)N1CCCC1 [Example 172]
1	O=C(Cn1cnc2csc(-c3ccc(Cl)cc3)c2c1=O)N1CCOCC1 [Example 354, 5-(4-chlorophenyl)-3-(2-morpholino-2-oxoethyl)thieno[3,4-d]pyrimidin-4(3H)-one]
76	CC1CN(C(=O)Cn2ccc3scc(-c4ccc(F)c(C(F)(F)F)c4)c3c2=O)C1 [Example 60, 3-(4-fluoro-3-(trifluoromethyl)phen-yl)-5-(2-(3-methylazetidin-1-yl)-2-oxoethyl)thieno[3,2-c]pyridin-4(5H)-one]
39	COCn1cc(-c2ccc(F)c(C(F)(F)F)c2)c2c(=O)n(CC(=O)N3CCC(F)C3)cnc21 (stereo not drawn) [Example 189, 5-(4-fluoro-3-(trifluoromethyl)phenyl)-3-(2-(3-fluoropyrrolidin-1-yl)-2-oxoethyl)-7-(methoxymethyl)-3H-pyrrolo[2,3-d]pyrimidin-4(7H)-one]
48	CCOCc1cn(CC(=O)N2CCC(F)C2)c(=O)c2c(-c3ccc(F)c(C(F)(F)F)c3)csc12 (stereo not drawn) [Example 127, 7-(ethoxymethyl)-3-(4-fluoro-3-(trifluoromethyl)phenyl)-5-(2-(3-fluoropyrrolidin-1-yl)-2-oxoethyl)thieno[3,2-c]pyridin-4(5H)-one]
53	COCCn1cc(-c2ccc(F)c(C(F)(F)F)c2)c2c(=O)n(CC(=O)N3CCC(F)C3)cnc21 (stereo not drawn) [Example 188, 5-(4-fluoro-3-(trifluoromethyl)phenyl)-3-(2-(3-fluoropyrrolidin-1-yl)-2-oxoethyl)-7-(2-methoxyethyl)-3H-pyrrolor[2,3-d]pyrimidin-4(7H)-one]
33	O=C(Cn1ccn2ncc(-c3ccc(F)c(C(F)(F)F)c3)c2c1=O)N1CC(F)C1 [Example 322, 3-(4-fluoro-3-(trifluoromethyl)phenyl)-5-(2-(3-fluoroazetidin-1-yl)-2-oxoethyl)pyrazolo[1,5-a]pyrazin-4(5H)-one]

Compound	Response Recovered (%)
C[Si](C)(C)CCOCn1cc(-c2ccc(Cl)c(F)c2)c2c(=O)n(CC(=O)N3CCCC3)ccc21 [Example 201, 3-(4-chloro-3-fluorophenyl)-5-(2-oxo-2-(pyrrolidin-1-yl)ethyl)-1-((2-(trimethylsilyl)ethoxy)methyl)-1H-pyrrolo[3,2-c]pyridin-4(5H)-one]	62
